Data reported in article PMC8362065, “Easily Available, Amphiphilic Diiron Cyclopentadienyl Complexes Exhibit in Vitro Anticancer Activity in 2D and 3D Human Cancer Cells through Redox Modulation Triggered by CO Release” (Chemistry (Weinheim an Der Bergstrasse, Germany), 2021).
Like-named read-outs stand apart in the source and are kept apart here.

Tests used:
[1] = tested on: human cancer cell line panel (2008, HCT‐15, PSN‐1, MCF‐7, A375); test: MTT assay, average over the human cancer cell line panel; format: cell-based; details: average over tested cancer cell lines, 72 h
Protocol: The diiron complexes [2A]^+, [2C–E]^+, [3F–G]^+, [5H]^+ (as CF3SO3 salts) and [2B]^+, [4G]^+ (as BF4 salts) were tested for their cytotoxic potential by means of the MTT assay, as reported in the Experimental Section. The most convenient counter anion in terms of preparation and handling/storage was chosen in each case; in particular, [2C]CF3SO3 was included in the study, while [2C]Cl was excluded, being highly moisture sensitive and thus affecting the accuracy of the weighting operation. The in‐house human cancer cell line panel contains examples of ovarian (2008), colon (HCT‐15), pancreatic (PSN‐1), and breast (MCF‐7) cancers as well as of melanoma (A375). Cisplatin was used as a reference and tested under the same experimental conditions. In addition, the cytotoxicity was also evaluated for shorter time of exposure (24 h) towards PSN‐1 cancer cells (Table S5).
(§1) MTT assay. The growth inhibitory effect towards tumour cells was evaluated by means of MTT assay as previously described.[57] Briefly, 3–8×10^3 cells/well, dependent upon the growth characteristics of the cell line, were seeded in 96‐well microplates in growth medium (100 μL). After 24 h, the medium was removed and replaced with a fresh one containing the compound to be studied at the appropriate concentration. Triplicate cultures were established for each treatment. After 24 or 72 h, each well was treated with 10 μL of a 5 mg/mL MTT saline solution, and following 5 h of incubation, 100 μL of a sodium dodecyl sulfate (SDS) solution in HCl 0.01 M were added. After an overnight incubation, cell growth inhibition was detected by measuring the absorbance of each well at 570 nm using a Bio‐Rad 680 microplate reader. Mean absorbance for each drug dose was expressed as a percentage of the control untreated well absorbance and plotted against drug concentration. IC50 values, the drug concentrations that reduce the mean absorbance at 570 nm to 50 % of those in the untreated control wells, were calculated by the four‐parameter logistic (4‐PL) model. Evaluation was based on means from at least four independent experiments.

[2] = tested on: Human breast (MCF‐7) carcinoma cell line; test: MTT assay, 2D cell culture; format: cell-based; details: MCF‐7 cells, 72 h
Protocol: (§2) Compounds [2B]BF4, [2C]CF3SO3, [2D]CF3SO3 and [3F]CF3SO3 were dissolved in water while the other compounds were dissolved in the minimum DMSO amount prior to cell culture testing. A calculated amount of the stock drug DMSO solution was added to the cell culture media to reach a final maximum DMSO concentration of 0.5 %, which had no effects on cell viability.
(§3) Cell cultures. Human colon (HCT‐15), pancreatic (PSN‐1) and breast (MCF‐7) carcinoma cell lines along with human melanoma cells (A375) were obtained from American Type Culture Collection (ATCC, Rockville, MD). Embryonic kidney HEK293 cells were obtained from the European Collection of Cell Cultures (ECACC, Salisbury, UK). Human ovarian 2008 cancer cells were kindly provided by Prof. G. Marverti (Dept. of Biomedical Science of Modena University, Italy). MCF‐7 ADR cells were kindly provided by Prof. N. Colabufo (Dept. Pharmacy, University of Bari, Italy). Cell lines were maintained in the logarithmic phase at 37 °C in a 5 % CO2 atmosphere using the following culture media containing 10 % fetal calf serum (Euroclone, Milan, Italy), antibiotics (50 units/mL penicillin and 50 μg/mL streptomycin) and 2 mM L‐glutamine: i) RPMI‐1640 medium (Euroclone, Milan, Italy) for PSN‐1, 2008, HCT‐15, MCF‐7 and MCF‐7 ADR cells; ii) DMEM for A375 and HEK293 cells.
as §1

[3] = tested on: Human ovarian 2008 cancer cells; test: MTT assay, 2D cell culture; format: cell-based; details: 2008 cells, 72 h
Protocol: as §2, §3, §1

[4] = tested on: Human colon (HCT‐15) carcinoma cell line; test: MTT assay, 2D cell culture; format: cell-based; details: HCT‐15 cells, 72 h
Protocol: as §2, §3, §1

[5] = tested on: Human pancreatic (PSN‐1) carcinoma cell line; test: MTT assay, 2D cell culture; format: cell-based
Protocol: as §2, §3, §1

[6] = tested on: human melanoma cells (A375); test: MTT assay, 2D cell culture; format: cell-based; details: 72 h
Protocol: as §2, §3, §1

[7] = tested on: MCF‐7 ADR cells; test: MTT assay, multidrug-resistant cancer cell model overexpressing P-gp; format: cell-based, human; details: for IC50: MCF‐7 ADR cells, 72 h, MTT; for RF=IC50 (resistant cells)/IC50 (wild‐type cells): MCF‐7 ADR vs MCF‐7, 72 h
Protocol: The antiproliferative activity was also investigated in a multidrug‐resistant cancer cell model overexpressing P‐gp (MCF‐7 ADR cells).
as §2, §3, §1

[8] = Carbon monoxide release in 5 % MeOH aqueous solution, headspace GC-TCD; format: physicochemical; details: 37 °C; for eq. CO released: eqCO = nCO/nFe; for % residual complex: 48 h, calculated as [1 – Σ(eqCO)/3]∙100
Protocol: Carbon monoxide release. A stock solution was prepared by dissolving the selected Fe compound (ca. 10 mg) in MeOH (0.50 mL) then diluting with H2O up to 10.0 mL total volume (5 % v/v MeOH). Next, 3.20 mL of the solution (n Fe ca. 6 ⋅ 10^−3 mmol) and a 7x2 mm stir bar were transferred into a 4‐mL screw top vial (1.72 mL neat gas phase volume). The mixture was sealed with a screw cap with a PTFE/silicone septum and heated at 37 °C for 24 h under stirring. Afterwards, the headspace was sampled with a gas tight microsyringe ([…]) and analysed by GC‐TCD. Therefore, the vial was vented, sealed and heated for further 24 h, and GC‐TCD analysis was repeated. The amount of released CO (νCO, mmol) was calculated based on a calibration curve obtained from analyses of known air/CO mixtures (1–10 % v/v), and the number of equivalents released over a 24 h period refers to the initial amount of compound (eqCO=n CO/n Fe). The residual amount of starting diiron complex after 48 h was calculated by assuming the release of 3 equivalents of CO per mole and the total amount of CO released.

[9] = tested on: TrxR in human pancreatic PSN‐1 cancer cells; test: TrxR activity in treated cells, NADPH-dependent reduction of DTNB; format: cell-based; details: PSN‐1 cells, 25 μM, 24 h
Protocol: Figure 6 Effects of compounds [2C]CF3SO3, [2D]CF3SO3 and Auranofin as positive control on TrxR in human pancreatic cells. […] Afterwards, cells were washed twice with PBS and lysed. TrxR activity was tested by measuring the NADPH‐dependent reduction of DTNB. * P<0.05.

[10] = PSN-1 cells, 24 h, read-out: IC50 (µM) ± SD
[11] = PSN‐1 cells, 72 h, read-out: IC50 (μM)±SD

| IC50 [2] [µM] | IC50 [3] [µM] | IC50 [4] [µM] | IC50 [5, 10] [µM] | IC50 [5, 11] [µM] | IC50 [6] [µM] | IC50 [7] [µM] | eq. CO released ([8]; 0-24 h) [eq.] | eq. CO released ([8]; 24-48 h) [eq.] | % residual complex [8] | RF=IC50 (resistant cells)/IC50 (wild‐type cells) [7] | Substance | IC50 [1] [µM] | residual TrxR cellular activity [9] [%] |
| --- | --- | --- | --- | --- | --- | --- | --- | --- | --- | --- | --- | --- | --- |
| > 100 | > 100 | > 100 | > 200 | > 100 | > 100 | > 100 | – | – | – | – | [Fe2Cp2(CO)2(μ‐CO){μ‐CNMe(CH2PO3Et2)}]X [[2B]BF4] | > 100 | – |
| > 100 | > 100 | > 100 | > 200 | > 100 | > 100 | > 100 | 0.22 ± 0.06 | 0.15 ± 0.01 | 87-88% | – | [Fe2Cp2(CO)2(μ‐CO){μ‐CNMe(CH2CHCH2)}]X [[3F]CF3SO3] | > 100 | – |
| 63.2 ± 5.5 | 55.5 ± 4.8 | 69.5 ± 6.7 | 144 ± 16 | 54.3 ± 6.2 | 50.8 ± 6.1 | 84.5 ± 8.5 | – | – | – | 1.3 | [Fe2Cp2(CO)2(μ‐CO){μ‐CNMe(1H‐indol‐6‐yl)}]CF3SO3 [[2A]CF3SO3] | – | – |

Continued, substance first:

| Substance | IC50 [2] [µM] | IC50 [3] [µM] | IC50 [4] [µM] | IC50 [5, 10] [µM] | IC50 [5, 11] [µM] | IC50 [6] [µM] | IC50 [7] [µM] | eq. CO released ([8]; 0-24 h) [eq.] | eq. CO released ([8]; 24-48 h) [eq.] | % residual complex [8] | RF=IC50 (resistant cells)/IC50 (wild‐type cells) [7] | IC50 [1] [µM] | residual TrxR cellular activity [9] [%] |
| --- | --- | --- | --- | --- | --- | --- | --- | --- | --- | --- | --- | --- | --- |
| [Fe2Cp2(CO)2(μ‐CO){μ‐CNMe(C6H11)}]X [[2C]CF3SO3] | 17.3 ± 3.3 | 28.4 ± 5.4 | 9.2 ± 1.8 | 94.2 ± 3.8 | 15.3 ± 2.7 | 16.8 ± 2.1 | 23.3 ± 4.1 | 0.25 ± 0.02 | 0.23 ± 0.04 | 83-86% | 1.3 | 17.4 | 57 |
| [Fe2Cp2(CO)2(μ‐CO){μ‐CNBn2}]X [[5H]CF3SO3] | 36.2 ± 6.1 | 37.4 ± 5.2 | 32.5 ± 4.8 | 112 ± 2.4 | 33.7 ± 4.2 | 30.8 ± 5.1 | 44.7 ± 6.1 | 0.29 ± 0.06 | 0.27 ± 0.02 | 80-84% | 1.2 | – | – |
| [Fe2Cp2(CO)2(μ‐CO){μ‐CNEt(2‐naphthyl)}]BF4 [[4G]BF4] | 21.4 ± 3.6 | 38.8 ± 6.9 | 22.9 ± 5.8 | 69.5 ± 2.1 | 25.6 ± 4.5 | 26.2 ± 5.6 | 26.9 ± 5.1 | – | – | – | 1.3 | – | – |
| [Fe2Cp2(CO)2(μ‐CO){μ‐CNMe(4‐C6H4OMe)}]CF3SO3 [[2D]CF3SO3] | 14.3 ± 2.6 | 21.3 ± 3.1 | 15.6 ± 3.5 | 35 ± 2 | 16.2 ± 2.9 | 15.5 ± 2.6 | 22.6 ± 4.2 | – | – | – | 1.6 | 16.6 | 39 |
